Assay [1] deals with T1, PLK1 (Homo sapiens, UniProt P53350). In words: In vitro PLK1 ELISA assay (biochemical). Also on record: purchased Cell Signalling 7728. Put shortly:
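Commercial PLK1 phosphorylates neutravidin-captured biotinylated CHK2 peptide for 45 min at room temperature in HEPES pH 7.2 with Mg2+/Mn2+/DTT, compounds at 10 μM to 0.005 μM. Phospho-CHK2(T68) antibody plus HRP secondary gives chemiluminescent read-out used for IC50.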

Assay [2] concerns the target T1, PLK1. In words: Cellular PLK1 assay in K562 cells overexpressing CDC25C. The class given is cell-based. Also on record: endogenous in cells; host or cells: K562 (human chronic myelogenous leukemia) overexpressing CDC25C, nocodazole-arrested. As to conditions: nocodazole arrested, cdc25c p-Ser198 readout. Put shortly:
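K562 cells overexpressing CDC25C were arrested with 333 nM nocodazole for 18 h at 37 °C, then exposed to compound at 8 points from 10 μM to 0.005 μM in duplicate for 120 min. After fixation and permeabilization, cells were stained for cdc25c pSer198 with a PE secondary and read by flow cytometry, 10,000 cells per well.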

[3] abbreviates: ELISA, CHK2-derived peptide substrate, read-out: PLK1 IC50 (μM) biochemical assay.
The mark [4] stands for this setting: read-out: IC50 in biochemical in vitro PLK1 ELISA assay (less than 10 μM).
[5] abbreviates: read-out: IC50 in biochemical ELISA assay (less than 0.01 μM).

T1 sequence (P53350 whole entry): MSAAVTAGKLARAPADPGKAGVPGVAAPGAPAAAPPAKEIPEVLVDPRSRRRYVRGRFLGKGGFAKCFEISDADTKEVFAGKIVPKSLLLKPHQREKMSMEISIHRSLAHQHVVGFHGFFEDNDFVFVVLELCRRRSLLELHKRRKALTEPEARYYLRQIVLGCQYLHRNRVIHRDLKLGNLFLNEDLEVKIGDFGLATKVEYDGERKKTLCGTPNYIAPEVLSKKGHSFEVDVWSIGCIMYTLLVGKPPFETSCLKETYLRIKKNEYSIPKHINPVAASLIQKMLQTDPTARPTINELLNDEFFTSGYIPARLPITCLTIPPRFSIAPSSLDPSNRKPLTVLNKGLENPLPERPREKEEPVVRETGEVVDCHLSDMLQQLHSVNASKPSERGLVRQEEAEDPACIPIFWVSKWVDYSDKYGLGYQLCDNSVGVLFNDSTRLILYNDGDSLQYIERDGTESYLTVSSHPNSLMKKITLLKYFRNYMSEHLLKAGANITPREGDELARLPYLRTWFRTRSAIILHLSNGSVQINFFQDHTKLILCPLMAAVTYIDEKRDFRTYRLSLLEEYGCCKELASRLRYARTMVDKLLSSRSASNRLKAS

`CC(C)c1cc(Nc2ncc(F)c(Nc3ccc4c(n3)NCCO4)n2)cc(N2CCN(C)CC2)c1` [compound 46, N4-(3,4-dihydro-2H-pyrido[3,2-b][1,4]oxazin-6-yl)-5-fluoro-N2-(3-isopropyl-5-(4-methylpiperazin-1-yl)phenyl)pyrimidine-2,4-diamine]: the IC50 on PLK1 [1] (setting [3]) is below 0.5 µM; at PLK1 [1] (setting [4]), below 10 µM; against PLK1 [2], 0.5 to 5 µM.
In the case of `CN1CCN(c2cc(Nc3ncc(F)c(Nc4ccc5c(n4)NC(=O)CO5)n3)cc(OC(C)(C)C)c2)CC1` [compound 47, 6-(2-(3-tert-butoxy-5-(4-methylpiperazin-1-yl)phenylamino)-5-fluoro-pyrimidin-4-ylamino)-2H-pyrido[3,2-b][1,4]oxazin-3(4H)-one], the IC50 at PLK1 [1] (setting [3]) is below 0.5 µM; on PLK1 [1] (setting [4]), below 10 µM; on PLK1 [2], below 0.5 µM.
Consider `CN1CCN(c2cc(Nc3ncc(F)c(Nc4ccc5c(n4)NCCO5)n3)cc(C3CC3)c2)CC1` [compound 48, N2-(3-cyclopropyl-5-(4-methylpiperazin-1-yl)phenyl)-N4-(3,4-dihydro-2H-pyrido[3,2-b][1,4]oxazin-6-yl)-5-fluoropyrimidine-2,4-diamine], for which the IC50 on PLK1 [1] (setting [3]) is below 0.5 µM; at PLK1 [1] (setting [5]), below 0.01 µM; at PLK1 [1] (setting [4]), below 10 µM; against PLK1 [2] it was below 0.5 µM.
`CCOc1ccc(N2CCN(C)CC2)cc1Nc1ncc(F)c(Nc2ccc3c(n2)NC(=O)CO3)n1` [compound 49, 6-(2-(2-ethoxy-5-(4-methylpiperazin-1-yl)phenylamino)-5-fluoro-pyrimidin-4-ylamino)-2H-pyrido[3,2-b][1,4]oxazin-3(4H)-one]: the half-maximal inhibitory concentration (IC50) on PLK1 [1] (setting [3]) is below 0.5 µM; at PLK1 [1] (setting [5]), below 0.01 µM; at PLK1 [1] (setting [4]), below 10 µM; against PLK1 [2] it was below 0.5 µM.
`CN1CCN(c2cc(Nc3ncc(F)c(Nc4ccc5c(n4)NC(=O)CO5)n3)cc(C3CC3)c2)CC1` [compound 50, 6-(2-(3-cyclopropyl-5-(4-methylpiperazin-1-yl)phenylamino)-5-fluoro-pyrimidin-4-ylamino)-2H-pyrido[3,2-b][1,4]oxazin-3(4H)-one]: the IC50 on PLK1 [1] (setting [3]) was below 0.5 µM; on PLK1 [1] (setting [5]), below 0.01 µM; at PLK1 [1] (setting [4]), below 10 µM; against PLK1 [2], below 0.5 µM.
Regarding `Cc1cnc(Nc2cccc(N3CCN(C)CC3)c2)nc1Nc1ccc2c(n1)NC(=O)CO2` [compound 51, 6-(5-methyl-2-(3-(4-methylpiperazin-1-yl)phenylamino)pyrimidin-4-ylamino)-2H-pyrido[3,2-b][1,4]oxazin-3(4H)-one], the half-inhibitory concentration (IC50) is below 0.5 µM at PLK1 [1] (setting [3]), below 0.01 µM at PLK1 [1] (setting [5]), below 10 µM at PLK1 [1] (setting [4]) and 0.5 to 5 µM on PLK1 [2].
Take `COc1cnc(Nc2cccc(N3CCN(C)CC3)c2)nc1Nc1ccc2c(n1)NCCO2` [compound 52, N4-(3,4-dihydro-2H-pyrido[3,2-b][1,4]oxazin-6-yl)-5-methoxy-N2-(3-(4-methylpiperazin-1-yl)phenyl)pyrimidine-2,4-diamine]: the IC50 at PLK1 [1] (setting [3]) is below 0.5 µM; on PLK1 [1] (setting [4]), below 10 µM; against PLK1 [2] it was 0.5 to 5 µM.
For `CN1CCN(c2cccc(Nc3ncc(F)c(N(CC4CC4)c4ccc5c(n4)NCCO5)n3)c2)CC1` [compound 53, N4-(cyclopropylmethyl)-N4-(3,4-dihydro-2H-pyrido[3,2-b][1,4]oxazin-6-yl)-5-fluoro-N2-(3-(4-methylpiperazin-1-yl)phenyl)pyrimidine-2,4-diamine], in that order: 0.5 to 5 µM, below 10 µM and at least 10 µM.
The corresponding values for `CN1CCN(c2cccc(Nc3ncc(F)c(N(c4ccc5c(n4)NCCO5)C4CCCC4)n3)c2)CC1` [compound 54, N4-cyclopentyl-N4-(3,4-dihydro-2H-pyrido[3,2-b][1,4]oxazin-6-yl)-5-fluoro-N2-(3-(4-methylpiperazin-1-yl)phenyl)pyrimidine-2,4-diamine] are 5 to 10 µM, below 10 µM and at least 10 µM.
As for `CN1CCN(c2cccc(Nc3ncc(C(F)(F)F)c(Nc4ccc5c(n4)NCCO5)n3)c2)CC1` [compound 55, N4-(3,4-dihydro-2H-pyrido[3,2-b][1,4]oxazin-6-yl)-N2-(3-(4-methyl-piperazin-1-yl)phenyl)-5-(trifluoro-methyl)pyrimidine-2,4-diamine], the 50% inhibitory concentration (IC50) was below 0.5 µM at PLK1 [1] (setting [3]), below 0.01 µM at PLK1 [1] (setting [5]), below 10 µM at PLK1 [1] (setting [4]) and below 0.5 µM against PLK1 [2].
`COc1cnc(Nc2cccc(N3CCN(C)CC3)c2)nc1Nc1ccc2c(n1)NC(=O)CO2` [compound 56, 6-(5-methoxy-2-(3-(4-methylpiperazin-1-yl)phenylamino)pyrimidin-4-ylamino)-2H-pyrido[3,2-b][1,4]oxazin-3(4H)-one]: the results for the IC50 on PLK1 [1] (setting [3]), at PLK1 [1] (setting [4]) and at PLK1 [2] were below 0.5 µM, below 10 µM and at least 10 µM, respectively.
In the case of `Cc1cc(Nc2ncc(C)c(Nc3ccc4c(n3)N(C)C(=O)CO4)n2)ccc1N1CCN(C)CC1` [compound 95, 4-methyl-6-(5-methyl-2-(3-methyl-4-(4-methylpiperazin-1-yl)phenylamino)pyrimidin-4-ylamino)-2H-pyrido[3,2-b][1,4]oxazin-3(4H)-one], the results for the concentration for half-maximal inhibition (IC50) at PLK1 [1] (setting [3]), at PLK1 [1] (setting [4]) and against PLK1 [2] were 0.5 to 5 µM, below 10 µM and at least 10 µM, respectively.
`Cc1cc(Nc2ncc(C)c(Nc3ccc4c(n3)NC(=O)C(C)(C)O4)n2)ccc1N1CCN(C)CC1` [compound 96, 2,2-dimethyl-6-(5-methyl-2-(3-methyl-4-(4-methylpiperazin-1-yl)phenylamino)pyrimidin-4-ylamino)-2H-pyrido[3,2-b][1,4]oxazin-3(4H)-one]: the values for the half-inhibitory concentration (IC50) at PLK1 [1] (setting [3]), on PLK1 [1] (setting [4]) and at PLK1 [2] were 5 to 10 µM, below 10 µM and at least 10 µM, respectively.
For the compound `CCCN1C(=O)COc2ccc(Nc3nc(Nc4ccc(N5CCN(C)CC5)c(C)c4)ncc3C)nc21` [compound 97, 6-(5-methyl-2-(3-methyl-4-(4-methylpiperazin-1-yl)phenylamino)pyrimidin-4-ylamino)-4-propyl-2H-pyrido[3,2-b][1,4]oxazin-3(4H)-one], the IC50 on PLK1 [1] (setting [3]) was below 0.5 µM; on PLK1 [1] (setting [4]) it was below 10 µM; at PLK1 [2], 0.5 to 5 µM.
The corresponding values for `CCN1C(=O)COc2ccc(Nc3nc(Nc4ccc(N5CCN(C)CC5)nc4)ncc3C)nc21` [compound 101, 4-ethyl-6-(5-methyl-2-(6-(4-methylpiperazin-1-yl)pyridin-3-ylamino)pyrimidin-4-ylamino)-2H-pyrido[3,2-b][1,4]oxazin-3(4H)-one] are below 0.5 µM, below 10 µM and 0.5 to 5 µM.
For `CCCN1C(=O)COc2ccc(Nc3nc(Nc4ccc(N5CC6CC5CN6C)c(C)c4)ncc3C)nc21` (centres unmarked) [compound 107, 6-(5-methyl-2-(3-methyl-4-(5-methyl-2,5-diazabicyclo[2.2.1]heptan-2-yl)phenylamino)pyrimidin-4-ylamino)-4-propyl-2H-pyrido[3,2-b][1,4]oxazin-3(4H)-one], the IC50 at PLK1 [1] (setting [3]) was below 0.5 µM; at PLK1 [1] (setting [4]), below 10 µM; against PLK1 [2] it was 0.5 to 5 µM.
Regarding `CN1CCN(c2cccc(Nc3ncc(F)c(Nc4ccc5c(n4)N(CC4CC4)C(=O)CO5)n3)c2)CC1` [compound 108, 4-(cyclopropylmethyl)-6-(5-fluoro-2-(3-(4-methylpiperazin-1-yl)phenylamino)pyrimidin-4-ylamino)-2H-pyrido[3,2-b][1,4]oxazin-3(4H)-one], the IC50 at PLK1 [1] (setting [3]) is below 0.5 µM; on PLK1 [1] (setting [4]), below 10 µM; against PLK1 [2] it was 0.5 to 5 µM.

For the origin of these results see patent publication US9040527B2, “Pyrimidinediamine kinase inhibitors” (Rigel Pharmaceuticals, Inc., priority 2008, dated 2015).
